In patent US5756450A, “Water soluble monoesters as solubilisers for pharmacologically active compounds and pharmaceutical excipients and novel cyclosporin galenic forms” (Novartis Corporation, priority 1987, dated 1998):

Legend:
[1] = Solubilisation in aqueous 10% saccharose monolaurate L-1695 solution (Example 12); type: physicochemical; settings: aqueous solution of saccharose monolaurate L-1695, 10% by weight
Excerpt: A solid solution is obtained by removing the water by freeze drying.

[2] = Water solubility of the active compound; type: physicochemical

| amount that can be solubilised per ml [1] [mg per ml] | water solubility [2] | SMILES |
| --- | --- | --- |
| 3 | – | CC(=O)[C@H]1CC[C@H]2[C@@H]3CCC4=CC(=O)CC[C@]4(C)[C@H]3CC[C@]12C [Progesterone] |
| 3 | below 0.1 g/100 ml | Cc1ccc2c(-c3ccccc3)nc(=O)n(C(C)C)c2c1 [Proquazone, 1-isopropyl-7-methyl-4-phenyl-2(1H)-quinazolinone] |
